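Cultured in 96-well plates, cells were exposed to test compound for 48 hours across five concentrations. GI50 marks 50% less growth.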 Calls of active or inactive are those of the source. No stated cut-off is given here; in the data, active = GI50 up to about 1.1 µM and inactive = higher.
Assays:
Assay in all cases: NCI tumour cell line growth inhibition, 48 h
[1] = tested on: DLD-1
[2] = tested on: HOP-18
[3] = tested on: KM-20L2
[4] = tested on: LXFL 529
[5] = tested on: M19-MEL
[6] = tested on: RXF 631
[7] = tested on: SNB-78
[8] = tested on: XF498
[9] = tested on: BT-549

SMILES | GI50 [1] | GI50 [2] | GI50 [3] | GI50 [4] | GI50 [5] | GI50 [6] | GI50 [7] | GI50 [8] | GI50 [9]
Clc1ccc(Cl)c2[s+]snc12 | 44.6 µM (inactive) | > 100 µM (inactive) | > 100 µM (inactive) | 34.2 µM (inactive) | 54.7 µM (inactive) | > 94.6 µM (inactive) | > 100 µM (inactive) | > 100 µM (inactive) | 
O=C1CN=C(c2ccccc2)c2ccncc2N1 | > 100 µM (inactive) | > 100 µM (inactive) | > 100 µM (inactive) | > 100 µM (inactive) | > 100 µM (inactive) | > 100 µM (inactive) | > 100 µM (inactive) | > 100 µM (inactive) | 
N#CC1=C(c2ccccc2)NNC(c2ccc(Cl)cc2)CC1=O (configuration not stated) | 32.4 µM (inactive) | > 100 µM (inactive) | 24 µM (inactive) | 28.7 µM (inactive) |  | > 10 µM (inactive) | > 100 µM (inactive) | 26.2 µM (inactive) | 
CN(C)c1ccc(/N=C2/C=CC(=C(C#N)C#N)c3ccccc32)cc1 | 0.294 µM (active) | 1.14 µM (inactive) | 0.209 µM (active) |  | 0.904 µM (active) |  | 0.479 µM (active) | 0.261 µM (active) | 0.828 µM (active)
CCOC(=O)NC(=O)c1cn(CCN(CCO)C(=O)NCCCCCCNC(=O)N(CCO)CCn2cc(C(=O)NC(=O)OCC)c(=O)[nH]c2=O)c(=O)[nH]c1=O | > 100 µM (inactive) | > 100 µM (inactive) | > 100 µM (inactive) |  | > 100 µM (inactive) |  | > 100 µM (inactive) | > 100 µM (inactive) | 
O=[PH](O)c1cccs1 | > 100 µM (inactive) | > 100 µM (inactive) | > 100 µM (inactive) | > 100 µM (inactive) | > 100 µM (inactive) |  |  | > 100 µM (inactive) | 
OC12CCC3(O)c4ccccc4C3C1c1ccccc12 (configuration not stated) |  | > 100 µM (inactive) | > 100 µM (inactive) | > 100 µM (inactive) | > 100 µM (inactive) |  | > 100 µM (inactive) | > 100 µM (inactive) | 
Cc1cc(C)nc(NS(=O)(=O)c2ccc(NC(=O)COC(=O)c3cccc4c(=O)c5ccccc5[nH]c34)cc2)n1 | 45.7 µM (inactive) |  | 38.6 µM (inactive) | 39.8 µM (inactive) | 20.4 µM (inactive) |  | 82.2 µM (inactive) | 33.3 µM (inactive) | 
CC(=O)OC1CC[C@@]2(C)C(CC(OC3OC(CO)C(O)C(O)C3O)[C@]3(C)C2CCC24CC23CC[C@H]4C(C)CC(O)[C@@H](O)C(C)(C)O)C1(C)C (some centres not stated) | 15.5 µM (inactive) | 14 µM (inactive) | 19.9 µM (inactive) | 8.99 µM (inactive) | 8.07 µM (inactive) | 29 µM (inactive) | > 5 µM (inactive) |  | 
O=C1CCCCCCCCCCC1CN1CCCCC1 (configuration not stated) | 54.8 µM (inactive) |  | 31.3 µM (inactive) | > 100 µM (inactive) | > 100 µM (inactive) |  | > 100 µM (inactive) | 89.5 µM (inactive) | 
O=C(Cn1ccnc1[N+](=O)[O-])c1ccc(F)cc1 |  | > 100 µM (inactive) | > 100 µM (inactive) | > 100 µM (inactive) | > 100 µM (inactive) |  |  | > 100 µM (inactive) | 
COc1ccc(-c2nc(Sc3c([N+](=O)[O-])ncn3C)n[nH]2)cc1 | 2.49 µM (inactive) | 0.296 µM (active) |  | 3.12 µM (inactive) | 4.9 µM (inactive) | 3.3 µM (inactive) | 4.22 µM (inactive) | 2.98 µM (inactive) | 
CN(C)C(=N)NC(=S)N(C)C | > 100 µM (inactive) | > 100 µM (inactive) | > 100 µM (inactive) | > 100 µM (inactive) | > 100 µM (inactive) | > 100 µM (inactive) | > 100 µM (inactive) | > 100 µM (inactive) | 
COC1(OC)CC2C(=O)N(Cc3ccccc3)C1C(S(=O)(=O)c1ccccc1)C2C(C)S(=O)(=O)c1ccccc1 (configuration not stated) | > 100 µM (inactive) | > 100 µM (inactive) | > 100 µM (inactive) | > 100 µM (inactive) | > 100 µM (inactive) |  | > 100 µM (inactive) | > 100 µM (inactive) | 
COc1ccc(C(=O)Cc2ccc(Br)cc2)cc1OC | > 100 µM (inactive) | > 100 µM (inactive) | > 100 µM (inactive) | > 100 µM (inactive) | > 100 µM (inactive) | 57.4 µM (inactive) | > 100 µM (inactive) | 31.7 µM (inactive) | 
CC(=O)CC(=O)ON(C)C(=O)Cc1ccccc1 | > 100 µM (inactive) |  | > 100 µM (inactive) | > 100 µM (inactive) | > 100 µM (inactive) |  | > 100 µM (inactive) | > 100 µM (inactive) | 
COC(=O)C1(c2ccc(OC)cc2)NC(c2ccccc2)C2C(=O)N(c3ccc(OC)cc3)C(=O)C21 (configuration not stated) | > 100 µM (inactive) | < 0.01 µM (active) | > 100 µM (inactive) | > 100 µM (inactive) |  | > 100 µM (inactive) | > 100 µM (inactive) | > 100 µM (inactive) | 

SMILES | GI50 [1] | GI50 [2] | GI50 [3] | GI50 [4] | GI50 [5] | GI50 [6] | GI50 [7] | GI50 [8] | GI50 [9]
C/C(=N/Nc1ccc([N+](=O)[O-])cc1[N+](=O)[O-])C(CC(C(=O)NCc1ccccc1)/C(C)=N\Nc1ccc([N+](=O)[O-])cc1[N+](=O)[O-])C(=O)NCc1ccccc1 (configuration not stated) | 12.1 µM (inactive) | 2.69 µM (inactive) | 14.2 µM (inactive) | 10.9 µM (inactive) | 11.5 µM (inactive) | 4.29 µM (inactive) | 9.16 µM (inactive) |  | 
CC(C)NC(=O)OCc1c2c(n(C)c1COC(=O)NC(C)C)-c1ccccc1CC2 | 11.9 µM (inactive) | 2.28 µM (inactive) | 14 µM (inactive) |  | 9.89 µM (inactive) |  | 11.4 µM (inactive) | 13.1 µM (inactive) | 
c1ccc2c(c1)[nH]c1c2ncc2[nH]c3ccccc3c21 | 3.44 µM (inactive) | 2.88 µM (inactive) | 3.71 µM (inactive) | 3.64 µM (inactive) | 5.35 µM (inactive) | 2.16 µM (inactive) | 4.95 µM (inactive) | 1.78 µM (inactive) | 
CN(C)[C@@H]1C(O)=C(C(=O)NCN2CCN(C(=N)NC(=N)N)CC2)C(=O)[C@@]2(O)C(O)=C3C(=O)c4c(O)cccc4[C@@](C)(O)[C@H]3C[C@@H]12 | 0.0466 µM (active) |  | 0.299 µM (active) | 0.0857 µM (active) | 0.31 µM (active) | 0.166 µM (active) | 0.0698 µM (active) | 0.091 µM (active) | 
N#C/N=C(/N)NCc1ccccc1 | > 100 µM (inactive) |  | > 100 µM (inactive) | > 100 µM (inactive) | > 100 µM (inactive) |  |  |  | 
CC(C)CC1C(=O)OC(C)(C)OC1=O |  |  |  |  |  |  |  |  | > 100 µM (inactive)
N#COc1ccc(Oc2ccc(OC#N)cc2)cc1 | 63 µM (inactive) | > 100 µM (inactive) | > 100 µM (inactive) | > 100 µM (inactive) | > 100 µM (inactive) | 17.1 µM (inactive) | > 100 µM (inactive) | > 100 µM (inactive) | 
Cc1cccc(C)c1/N=N/c1ccc(O)c(CN(C)C)c1 |  |  |  |  |  |  |  |  | 56.5 µM (inactive)
Nc1c(-c2nc3ccccc3o2)sc(=S)n1-c1ccc(Cl)cc1 |  |  |  |  |  |  |  |  | 31 µM (inactive)
C/C(CC(=O)Nc1cccc([N+](=O)[O-])c1)=N\NC(=O)CC#N | > 100 µM (inactive) |  | > 100 µM (inactive) | > 100 µM (inactive) |  | > 100 µM (inactive) | > 100 µM (inactive) | > 100 µM (inactive) | 
CC1(C)CCCC(C)(C2CCC3(C)C2C(O)CC2C4(C)CCC(O)C(C)(C)C4CCC23C)O1 (configuration not stated) |  |  |  |  |  |  |  |  | > 100 µM (inactive)
C/C(=N\O)C(CN(C)C)C(c1ccccc1)c1c(O)c2ccccc2oc1=O (configuration not stated) | > 100 µM (inactive) |  | > 100 µM (inactive) | > 100 µM (inactive) | > 100 µM (inactive) |  | > 100 µM (inactive) | > 100 µM (inactive) | 
COC(=O)C(/C(=N\O)C(=O)Nc1cccc(Cl)c1C)c1cnc2ccccc2n1 (configuration not stated) |  |  |  |  |  |  |  |  | > 100 µM (inactive)
COc1cccc(/C=C2\C(=O)N(C(=O)c3ccc(NC(C)=O)cc3)N=C2C)c1 | > 100 µM (inactive) |  |  |  | > 100 µM (inactive) |  | > 100 µM (inactive) | > 100 µM (inactive) | 
CN(c1ccccc1)c1nc(=[N+]2CCCC2)ss1.[O-][Cl+3]([O-])([O-])[O-] |  | > 100 µM (inactive) | > 100 µM (inactive) | > 100 µM (inactive) |  | 20.6 µM (inactive) | > 100 µM (inactive) |  | 
COC(CNC(=O)C(C)NC(=O)C(C)NC(=O)c1ccccc1)OC (configuration not stated) |  |  |  |  |  |  |  |  | > 100 µM (inactive)
